Assay results: US20220378696A1, “TARGET DELIVERY OF NON-BIOLOGICS THROUGH NANOTECHNOLOGY FOR TISSUE REPAIR” (BOARD OF REGENTS, THE UNIVERSITY OF TEXAS SYSTEM, priority 2019, published 2022)

Tests used:
[1] = system: brain endothelial cells (BECs); test: Mitochondrial superoxide (MitoSox) in TNF-α stimulated brain endothelial cells; format: cell-based, mouse; conditions: BECs stimulated by TNF-a (10 ng/ml) for 4 hours, then treated
Protocol: Next tested was the potential of reparative effects of two non-biologics. One is a triblock biocompatible polymer, known as poloxamers (P188), that was approved by FDA for numerous applications. […] The other compound is N-acetylcysteine (NAC), which is also an FDA-approved antioxidant that is associated with health benefits. […] Using a fluorophore (MitoSox) that preferentially binds to superoxide, the extent of oxidative stress in response to TNF-a were recorded and quantified. Oxidative stress is an important determinant of endothelial injury, which influences a number of cellular responses by activating several intracellular signaling cascades in endothelial cells, leading to the progression of vascular diseases. […] TNF-a induced a significant increase in oxidative stress and, if left untreated, the superoxide level persisted (FIG. 3B). […] This sequence of events may be engineered to accommodate short- and long-term beneficial responses. […]
Measurement of Mitochondrial Reactive Oxygen Species (ROS). Superoxide was measured using a MitoSoX™ Red mitochondrial superoxide indicator, according to the manufacturer's instructions. […] After washing three times with PBS, images were taken with a fluorescent microscope and fluorescence intensities were calculated using Nikon ND2 software.

[2] = In vitro drug release from PLGA NPs; format: physicochemical
Protocol: In vitro Drug Release. For the release studies, 1 mg each from all prepared NPs were dispersed in 1 ml of release medium (pH 7.4) each to form a suspension. Each suspension was in three replicates in 1.5 ml centrifuge tubes and incubated at 37° C. The release buffers were collected after centrifugation at 15,000 rpm for 30 min. The release buffers were replaced with fresh buffer at different periods and subjected to analysis using HPLC. The cumulative release of the model drug from each loaded NPs was plotted against time.

[3] = Drug encapsulation (loading) efficiency of PLGA NPs; format: physicochemical; conditions: in PLGA NPs
Protocol: Drug Encapsulation Efficiency. To find the amount of P188 and NAC within the NPs, P188 was fluorescently modified (TAMRA-P188) and loaded into the NPs. Fluorescence intensity of TAMRA-P188 in the supernatant was quantified over time using a plate reader. NAC was measured with high-performance liquid chromatography (HPLC). The results were converted into concentrations, and the loading efficiency for P188 and NAC were 85% and 28%, respectively, and calculated using the following equation.

[4] = system: MMP-9; test: MMP-9 enzyme activity assay (EnzChek) in cells exposed to microcavitation; format: cell-based, mouse; conditions: microcavitation (5 blasts), pretreatment 2 h: doxycycline 20 mM, phenanthroline 0.5 mM
Protocol: (§1) MMPs activities assay, Fold change, and Permeability measurement: EnzChek MMP-2 & 9 Assay Kit were used for MMP-2 & 9 activity assays. Cells were cultured in endothelial cell complete media and divided into the following groups: control (no treatment), exposed (5 blasts), doxycycline (20 mM)+exposed (5 blasts), doxycycline (20 mM), and phenanthroline (0.5 mM, positive control). Before initiating experiments, cells were washed with PBS, and no serum media was applied. Dishes in the treatment groups were pretreated with doxycycline or phenanthroline for 2 h at 37° C. Cells were exposed to microcavitation and incubated at 37° C. for 1 h. All groups were homogenized with lysis buffer containing 0.1% Triton-X 100, and protein was estimated with Pierce BCA Protein Assay Kit. Equal amounts of protein from each sample were aliquoted in lysis buffer. Samples were then analyzed using a plate reader at excitation 495 nm and 515 nm to quantitate MMP-2 & 9 activities. Primary brain endothelial cells were grown under the conditions described above. At the end of all experimental conditions, RNA from the cells was extracted and used for PCR analysis of the MMP-2 & 9 gene expressions. Finally, the permeability of the brain endothelium model exposed to doxycycline, P188, or in combination of them both was measured.

[5] = system: MMP-2; test: MMP-2 enzyme activity assay (EnzChek) in cells exposed to microcavitation; format: cell-based, mouse; conditions: microcavitation (5 blasts), pretreatment 2 h: doxycycline 20 mM, phenanthroline 0.5 mM
Protocol: as §1

Row | time within which most of the release was achieved [2] [h] | release ([2]; in 7 days) [%] | time required to reach a half of the maximum release ([2]; pH 7.4, 37° C., linear regression) [h] | loading efficiency [3] [%] | Compound | superoxide level (oxidative stress) [1] | MMP-9 enzymatic activity [4] | MMP-2 enzymatic activity [5]
1 | ≤ 24 | ~100 | ~7.7 | 28 | CC(=O)N[C@@H](CS)C(=O)O [NAC, N-acetylcysteine] | noticeable attenuation of superoxide |  | 
2 |  |  |  |  | c1cnc2c(c1)ccc1cccnc12 [phenanthroline] |  | inhibited | inhibited
